# According to ChEMBL document CHEMBL4130422, “Design, synthesis and biological evaluation of novel C-29 carbamate celastrol derivatives as potent and selective cytotoxic compounds” (Eur J Med Chem, 2017):
# The source made the active and inactive calls. The calls are words filed in the database; no cut-off is given here.
# Legend:
# [1] = test system: MIA PaCa-2; assay: Antiproliferative activity against human MIAPaCa2 cells after 72 hrs by MTT assay; type: functional, cell-based; details: MIA PaCa-2, 72 h
# [2] = test system: A549; assay: Antiproliferative activity against human A549 cells after 72 hrs by MTT assay; type: functional, cell-based; details: A549, 72 h
# [3] = test system: HT-29; assay: Antiproliferative activity against human HT-29 cells after 72 hrs by MTT assay; type: functional, cell-based; details: HT-29, 72 h
# [4] = test system: BJ; assay: Antiproliferative activity against human BJ cells after 72 hrs by MTT assay; type: cell-based
# [5] = test system: MDA-MB-231; assay: Antiproliferative activity against human MDA-MB-231cells after 72 hrs by MTT assay; type: functional, cell-based; details: MDA-MB-231, 72 h
# [6] = test system: SK-OV-3; assay: Antiproliferative activity against human SKOV3 cells after 72 hrs by MTT assay; type: functional, cell-based; details: SK-OV-3, 72 h
# [7] = test system: MCF7; assay: Antiproliferative activity against human MCF7 cells after 72 hrs by MTT assay; type: functional, cell-based; details: MCF7, 72 h
# [8] = test system: SK-OV-3; assay: Synergistic antiproliferative activity against human SKOV3 cells assessed as combination index at 0.5 uM after 72 hrs in presence of 32 uM carboplatin by MTT assay; type: functional
# [9] = test system: SK-OV-3; assay: Induction of apoptosis in human SKOV3 cells assessed as cell shrinkage at IC50 after 48 hrs by Hoechst 33342 staining-based fluorescence microscopic method; type: functional
# [10] = test system: SK-OV-3; assay: Induction of apoptosis in human SKOV3 cells assessed as decrease in Bcl-2 expression levels at IC50 after 72 hrs by Western blot analysis; type: functional, cell-based
# [11] = test system: SK-OV-3; assay: Induction of apoptosis in human SKOV3 cells assessed as decrease in procaspase-8 expression levels at IC50 after 72 hrs by Western blot analysis; type: functional, cell-based
# [12] = test system: SK-OV-3; assay: Induction of apoptosis in human SKOV3 cells assessed as increase in Bax expression levels at IC50 after 72 hrs by Western blot analysis; type: functional, cell-based
# [13] = test system: SK-OV-3; assay: Anticlonogenic activity against human SKOV3 cells assessed as reduction in colony formation efficiency treated for 24 hrs followed by incubation in drug free medium for 12 days by crystal violet staining-based assay; type: functional, cell-based
# [14] = test system: SK-OV-3; assay: Induction of apoptosis in human SKOV3 cells assessed as increase in cleaved PARP expression levels at IC50 after 72 hrs by Western blot analysis; type: functional, cell-based
# [15] = test system: SK-OV-3; assay: Synergistic antiproliferative activity against human SKOV3 cells assessed as combination index at 0.125 uM after 72 hrs in presence of 8 uM carboplatin by MTT assay; type: functional
# [16] = test system: SK-OV-3; assay: Induction of apoptosis in human SKOV3 cells assessed as increase in cleaved caspase-9 expression levels at IC50 after 72 hrs by Western blot analysis; type: functional, cell-based
# [17] = test system: SK-OV-3; assay: Induction of apoptosis in human SKOV3 cells assessed as decrease in procaspase-3 expression levels at IC50 after 72 hrs by Western blot analysis; type: functional, cell-based
# [18] = test system: SK-OV-3; assay: Induction of apoptosis in human SKOV3 cells assessed as nuclear condensation at IC50 after 48 hrs by Hoechst 33342 staining-based fluorescence microscopic method; type: functional, cell-based
# [19] = test system: SK-OV-3; assay: Induction of apoptosis in human SKOV3 cells assessed as increase in Bid expression levels at IC50 after 72 hrs by Western blot analysis; type: functional, cell-based
# [20] = test system: SK-OV-3; assay: Synergistic antiproliferative activity against human SKOV3 cells assessed as combination index at 0.25 uM after 72 hrs in presence of 16 uM carboplatin by MTT assay; type: functional
# [21] = test system: SK-OV-3; assay: Induction of apoptosis in human SKOV3 cells assessed as increase in cleaved caspase-3 expression levels at IC50 after 72 hrs by Western blot analysis; type: functional, cell-based
# [22] = test system: SK-OV-3; assay: Induction of apoptosis in human SKOV3 cells assessed as decrease in procaspase-9 expression levels at IC50 after 72 hrs by Western blot analysis; type: functional, cell-based
# [23] = test system: SK-OV-3; assay: Induction of apoptosis in human SKOV3 cells at IC50 by Annexin V-FITC/propidium iodide double-staining-based FACS analysis; type: functional, cell-based; details: TDE = time-dependent effect
# [24] = test system: SK-OV-3; assay: Induction of apoptosis in human SKOV3 cells assessed as formation of apoptotic bodies at IC50 after 48 hrs by Hoechst 33342 staining-based fluorescence microscopic method; type: functional, cell-based
# [25] = test system: SK-OV-3; assay: Induction of apoptosis in human SKOV3 cells assessed as early apoptotic cells at IC50 after 72 by Annexin V-FITC/propidium iodide double-staining-based FACS analysis (reference value: 4.5%); type: functional
# [26] = test system: SK-OV-3; assay: Induction of apoptosis in human SKOV3 cells assessed as increase in cleaved caspase-8 expression levels at IC50 after 72 hrs by Western blot analysis; type: functional, cell-based
# [27] = test system: SK-OV-3; assay: Induction of apoptosis in human SKOV3 cells assessed as decrease in full-length PARP expression levels at IC50 after 72 hrs by Western blot analysis; type: functional, cell-based
# [28] = test system: SK-OV-3; assay: Induction of apoptosis in human SKOV3 cells assessed as nuclear fragmentation at IC50 after 48 hrs by Hoechst 33342 staining-based fluorescence microscopic method; type: functional, cell-based
# [29] = test system: SK-OV-3; assay: Synergistic antiproliferative activity against human SKOV3 cells assessed as combination index at 1 uM after 72 hrs in presence of 64 uM carboplatin by MTT assay; type: functional
# [30] = test system: SK-OV-3; assay: Synergistic antiproliferative activity against human SKOV3 cells assessed as combination index at 2 uM after 72 hrs in presence of 128 uM carboplatin by MTT assay; type: functional
# [31] = test system: SK-OV-3; assay: Cell cycle arrest in human SKOV3 cells at IC50 at 24 to 72 hrs by propidium iodide staining-based FACS analysis; type: functional
smiles,measurement,setting,value
CCOC(=O)N[C@]1(C)CC[C@]2(C)CC[C@]3(C)C4=CC(=O)c5c(cc(O)c(O)c5C)[C@]4(C)CC[C@@]3(C)[C@@H]2C1,IC50,[1],> 10000 nM
same,IC50,[2],> 10000 nM
CCCOC(=O)N[C@]1(C)CC[C@]2(C)CC[C@]3(C)C4=CC=C5C(=CC(=O)C(O)=C5C)[C@]4(C)CC[C@@]3(C)[C@@H]2C1,IC50,[1],400 nM
same,IC50,[2],1000 nM
CC1=C(O)C(=O)C=C2C1=CC=C1[C@@]2(C)CC[C@@]2(C)[C@@H]3C[C@](C)(N=C=O)CC[C@]3(C)CC[C@]12C,IC50,[1],530 nM
same,IC50,[2],2470 nM
CC1=C(O)C(=O)C=C2C1=CC=C1[C@@]2(C)CC[C@@]2(C)[C@@H]3C[C@](C)(C(=O)O)CC[C@]3(C)CC[C@]12C [CELASTROL],IC50,[3],1280 nM
same,IC50,[1],460 nM
same,IC50,[4],2740 nM
same,IC50,[2],1560 nM
same,IC50,[5],1320 nM
same,IC50,[6],1160 nM
same,IC50,[7],1350 nM
CC(=O)Oc1cc2c(c(C)c1OC(C)=O)CC=C1[C@@]2(C)CC[C@@]2(C)[C@@H]3C[C@](C)(N=C=O)CC[C@]3(C)CC[C@]12C,IC50,[1],1410 nM
same,IC50,[2],2890 nM
CCOC(=O)N[C@]1(C)CC[C@]2(C)CC[C@]3(C)C4=CC=C5C(=CC(=O)C(O)=C5C)[C@]4(C)CC[C@@]3(C)[C@@H]2C1,IC50,[1],780 nM
same,IC50,[2],1930 nM
CC(=O)Oc1cc2c(c(C)c1OC(C)=O)C(=O)C=C1[C@@]2(C)CC[C@@]2(C)[C@@H]3C[C@](C)(C=O)CC[C@]3(C)CC[C@]12C,IC50,[1],380 nM
same,IC50,[2],2770 nM
Cc1c(O)c(O)cc2c1CC=C1[C@@]2(C)CC[C@@]2(C)[C@@H]3C[C@](C)(C(=O)O)CC[C@]3(C)CC[C@]12C [DIHYDROCELASTROL],IC50,[1],720 nM
same,IC50,[2],3150 nM
COC(=O)N[C@]1(C)CC[C@]2(C)CC[C@]3(C)C4=CC(=O)c5c(cc(OC)c(O)c5C)[C@]4(C)CC[C@@]3(C)[C@@H]2C1,IC50,[1],> 10000 nM
same,IC50,[2],> 10000 nM
CC1=C(O)C(=O)C=C2C1=CC=C1[C@@]2(C)CC[C@@]2(C)[C@@H]3C[C@](C)(NC(=O)OCC(C)(C)CO)CC[C@]3(C)CC[C@]12C,IC50,[1],1000 nM
same,IC50,[2],1580 nM
CCOC(=O)N[C@]1(C)CC[C@]2(C)CC[C@]3(C)C4=CC(=O)c5c(cc(OC)c(OC)c5C)[C@]4(C)CC[C@@]3(C)[C@@H]2C1,IC50,[1],> 10000 nM
same,IC50,[2],> 10000 nM
"CC(=O)Oc1cc2c(c(C)c1OC(C)=O)C(=O)C=C1C2(C)CC[C@@]2(C)[C@@H]3C[C@](C)(N=C=O)CC[C@]3(C)CC[C@]12C (single isomer, unassigned)",IC50,[1],> 10000 nM
same,IC50,[2],> 10000 nM
CCCCCOC(=O)N[C@]1(C)CC[C@]2(C)CC[C@]3(C)C4=CC=C5C(=CC(=O)C(O)=C5C)[C@]4(C)CC[C@@]3(C)[C@@H]2C1,IC50,[3],1020 nM
same,IC50,[1],320 nM
same,IC50,[4],880 nM
same,IC50,[2],1050 nM
same,IC50,[5],520 nM
same,IC50,[6],450 nM
same,IC50,[7],590 nM
CC(=O)Oc1cc2c(c(C)c1OC(C)=O)C(=O)C=C1[C@@]2(C)CC[C@@]2(C)[C@@H]3C[C@](C)(CO)CC[C@]3(C)CC[C@]12C,IC50,[1],480 nM
same,IC50,[2],1870 nM
COC(=O)N[C@]1(C)CC[C@]2(C)CC[C@]3(C)C4=CC(=O)c5c(cc(O)c(O)c5C)[C@]4(C)CC[C@@]3(C)[C@@H]2C1,IC50,[1],6500 nM
same,IC50,[4],> 30000 nM
same,IC50,[2],6530 nM
same,IC50,[6],7980 nM
"CC(=O)Oc1cc2c(c(C)c1OC(C)=O)C(=O)C=C1C2(C)CC[C@@]2(C)[C@@H]3C[C@](C)(C(=O)O)CC[C@]3(C)CC[C@]12C (single isomer, unassigned)",IC50,[1],> 10000 nM
same,IC50,[2],> 10000 nM
COC(=O)N[C@]1(C)CC[C@]2(C)CC[C@]3(C)C4=CC=C5C(=CC(=O)C(O)=C5C)[C@]4(C)CC[C@@]3(C)[C@@H]2C1,IC50,[1],580 nM
same,IC50,[2],1740 nM
CC(=O)Oc1cc2c(c(C)c1OC(C)=O)CC=C1[C@@]2(C)CC[C@@]2(C)[C@@H]3C[C@](C)(C(=O)O)CC[C@]3(C)CC[C@]12C,IC50,[1],560 nM
same,IC50,[2],2210 nM
CC1=C(O)C(=O)C=C2C1=CC=C1[C@@]2(C)CC[C@@]2(C)[C@@H]3C[C@](C)(NC(=O)OCC(C)C)CC[C@]3(C)CC[C@]12C,IC50,[1],800 nM
same,IC50,[2],2230 nM
CC(=O)Oc1cc2c(c(C)c1OC(C)=O)C(=O)C=C1[C@@]2(C)CC[C@@]2(C)[C@@H]3C[C@](C)(C(N)=O)CC[C@]3(C)CC[C@]12C,IC50,[1],360 nM
same,IC50,[2],1270 nM
COC(=O)N[C@]1(C)CC[C@]2(C)CC[C@]3(C)C4=CC(=O)c5c(cc(OC(C)=O)c(OC(C)=O)c5C)[C@]4(C)CC[C@@]3(C)[C@@H]2C1,CI,[8],0.6273
same,Activity,[9],Active
same,Activity,[10],inactive
same,Activity,[11],Active
same,IC50,[3],1540 nM
same,Activity,[12],inactive
same,IC50,[1],330 nM
same,Activity,[13],Dose-dependent effect
same,Activity,[14],Active
same,IC50,[4],3680 nM
same,IC50,[2],880 nM
same,CI,[15],1.112
same,Activity,[16],inactive
same,Activity,[17],Active
same,IC50,[5],1350 nM
same,Activity,[18],Active
same,Activity,[19],inactive
same,CI,[20],0.9285
same,IC50,[6],540 nM
same,Activity,[21],Active
same,Activity,[22],inactive
same,Activity,[23],Tde
same,Activity,[24],Active
same,Activity,[25],29.9%
same,Activity,[26],Active
same,Activity,[27],Active
same,IC50,[7],1680 nM
same,Activity,[28],Active
same,CI,[29],0.7863
same,CI,[30],1.076
same,Activity,[31],inactive
